Common to all, as to assay type: cell-based
One experiment has as its system CGRP. Kind of experiment: Quantity of neuropeptide CGRP released by neurone culture, ELISA (spontaneous, KCl- or capsaicin-stimulated). Conditions: KCl 40 mM alone, 20 mins; based on the standard (no test substance) = 100. For orientation: In an ELISA, binding on a coated surface is turned into a signal by an enzyme label.
The subject of another experiment is human PMNs. The experiment in a line: Respiratory burst: reactive oxygen compounds (ROS) of zymosan-activated human PMNs, luminol luminescence. Conditions: for Content of reactive oxygen compounds (ROS) (% versus control): 24 h incubation, zymosan activation; for Effectiveness in suppressing inflammatory processes: in words, effectiveness increases with the quantity used. The text has this:
In the course of cutaneous inflammation, leucocytes, for example polymorphonuclear neutrophilic granulocytes (PMNs), are attracted and stimulated by peptides, such as cytokines and other messenger substances such as, for example, leudotrienes released from activated or necrotic cells in the dermis. These stimulated PMNs secrete not only pro-inflammatory cytokines, leucotrienes and proteases, but also reactive oxygen compounds (ROS), such as superoxides and hypochlorite anions for example. This is done to destroy pathogenic bacteria or fungi. This activity of the PMNs is known as respiratory burst and intensifies the inflammation reaction and causes tissue damage through released ROS and lysosomal enzymes.
Particulars of the test procedure can be found in the article by Kapp et al. entitled “The role of immunomodulating cytokines, activation of the oxidative metabolism in human polymorphonuclear neutrophilic granulocytes, Journal of Investigative Dermatology, Vol. 95, pages 94S to 99S, 1990”.
A suspension of human PMNs (1 million cells per milliliter) was exposed to the substances to be tested (incubation for 24 h at 37° C. in an atmosphere containing 5% by volume CO2). The number of PMN cells was determined. The PMNs were activated with 0.1 ml zymosan (an insoluble carbohydrate from the cell wall of yeast), followed by incubation for 0.5 h at 37° C. in an atmosphere containing 5% by volume CO2).
The results are set out in the following Table (% by comparison with the control test). The quantity of ROS was measured with luminol; luminescence was determined for 60 seconds.

In the next experiment the test system is PGE2. Kind of experiment: Protection against UV-B radiation: PGE2 release from human keratinocytes, ELISA. Conditions: 0.003%, UV-B 50 mJ/cm^2, UV-B alone = 100, no UV-B = 0. From the text: UV-B radiation (wavelength 280 to 320 nm) causes inflammation of the skin, mainly by activation of an enzyme (phospholipase A2 or PLA2) which releases arachidonic acid from the cell membrane (V. A. De Leo, D. Hanson, I. B. Weinstein and L. C. Harber, Ultraviolet radiation stimulates the release of arachidonic acid from mammalian cells in culture, Photochemistry and Photobiology (1985), Vol. 41, No. 1, pages 51 to 56). Other enzymes (so-called cyclo-oxygenases) then convert the arachidonic acid into active components, so-called prostaglandin (PG for short). The prostaglandin is secreted by the cells. The fixing of certain prostaglandins (PGE2) to specific receptors of the skin leads to reddening and swelling of the skin in the same way as sunburn does.
(§1) Human keratinocytes were incubated for three days at 37° C. in an atmosphere containing 5% by volume carbon dioxide (standard nutrient medium containing foetal calf serum (FCS)). The nutrient medium was then replaced by an isotonic common salt solution containing the substance to be tested (astilbin or engeletin). The keratinocytes were exposed to UV-B radiation (50 mJ/cm^2, DUKE GL40E lamp), followed by incubation for one day at 37° C. in an atmosphere containing 5% by volume carbon dioxide. The supernatant nutrient medium was spectroscopically analyzed for LDH2 and PEG2 by the ELISA method.
(§2) The results are set out in the following Table (% by comparison with the control test).

The test system of another experiment is human keratinocytes. Kind of experiment: Protection against UV-B radiation: LDH release from human keratinocytes. Conditions: 0.003%, UV-B 50 mJ/cm^2, UV-B alone = 100, no UV-B = 0. How it is done: In cultured human cells, these effects of UV-B radiation on the cell membranes are associated with the release of a cytoplasmatic enzyme into the supernatant solution. This cytoplasmatic enzyme is lactate dehydrogenase or LDH (B. Bonnekoh, B. Farkas, J. Geisel and G. Mahrle, Lactate dehydrogenase release as an indicator of dithranol-induced membrane injury in cultured human keratinocytes, Dermatological Research (1990), Vol. 282, pages 325-331).
as §1, §2
(In general: LDH leaks from cells whose membrane has failed.)

Structures are written as SMILES.

With `[Cl-].[K+]` [KCl, potassium chloride], the CGRP with CGRP is recorded as 554 ± 8.

With `C[C@@H]1O[C@@H](O[C@H]2C(=O)c3c(O)cc(O)cc3O[C@@H]2c2ccc(O)c(O)c2)[C@H](O)[C@H](O)[C@H]1O` [Pure astilbin, astilbin], the figures for the “Content of reactive oxygen compounds (ROS) (% versus control)” value with human PMNs (dose 0.0003%), in the experiment on human PMNs (dose 0.001%) and in the experiment on human PMNs (dose 0.003%) were 47 % versus control, 26 % versus control and 14 % versus control, respectively. Moreover, the “Effectiveness in suppressing inflammatory processes” value in the experiment on human PMNs is reported as “very effective”. For the same compound, the “Quantity of PGE2 in %/(control without UV-B exposure)” value is on record as 58% with PGE2 and “reduced” with PGE2 (listed as astilbin). The entries for the “Quantity of LDH in %/(control without UV-B exposure)” value in the experiment with human keratinocytes and in the experiment on human keratinocytes (listed as astilbin) were 58% and “reduced”, respectively.

As to `CC1OC(OC2C(=O)c3c(O)cc(O)cc3OC2c2ccc(O)cc2)C(O)C(O)C1O` (centres unmarked) [Pure engeletin, engeletin], the entries for the “Content of reactive oxygen compounds (ROS) (% versus control)” value in the experiment with human PMNs (dose 0.001%), in the experiment on human PMNs (dose 0.003%) and with human PMNs (dose 0.01%) were 65 % versus control, 50 % versus control and 25 % versus control, respectively. For the same compound, in the experiment with human PMNs, the “Effectiveness in suppressing inflammatory processes” value is given as “very effective”. The figures for the “Quantity of PGE2 in %/(control without UV-B exposure)” value with PGE2 and with PGE2 (listed as engeletin) were 35% and “the effect is not as pronounced”, respectively. Further, the “Quantity of LDH in %/(control without UV-B exposure)” value is listed as 47% in the experiment on human keratinocytes and “the effect is not as pronounced” with human keratinocytes (listed as engeletin).

The values are drawn from US20070003510A1, “Preparations containing an extract of eperua falcata and/or constituents of the latter” (priority 2003, published 2007).
